Measurements published in publication PMC3991664, “Growth Inhibitory, Bactericidal, and Morphostructural Effects of Dehydrocostus Lactone from Magnolia sieboldii Leaves on Antibiotic-Susceptible and -Resistant Strains of Helicobacter pylori” (PLoS ONE, 2014).

Molecular target: T1, urease (UreB subunit) (Helicobacter pylori, UniProt P69996)
T1 construct: native crude urease of H. pylori ATCC 43504 (UreA and UreB subunits); with UreA (urease subunit)
Assay: urease activity inhibition in crude urease preparation, indophenol (ammonia release) assay; Western blot of subunits
Assay type: biochemical

T1 sequence (P69996 whole entry): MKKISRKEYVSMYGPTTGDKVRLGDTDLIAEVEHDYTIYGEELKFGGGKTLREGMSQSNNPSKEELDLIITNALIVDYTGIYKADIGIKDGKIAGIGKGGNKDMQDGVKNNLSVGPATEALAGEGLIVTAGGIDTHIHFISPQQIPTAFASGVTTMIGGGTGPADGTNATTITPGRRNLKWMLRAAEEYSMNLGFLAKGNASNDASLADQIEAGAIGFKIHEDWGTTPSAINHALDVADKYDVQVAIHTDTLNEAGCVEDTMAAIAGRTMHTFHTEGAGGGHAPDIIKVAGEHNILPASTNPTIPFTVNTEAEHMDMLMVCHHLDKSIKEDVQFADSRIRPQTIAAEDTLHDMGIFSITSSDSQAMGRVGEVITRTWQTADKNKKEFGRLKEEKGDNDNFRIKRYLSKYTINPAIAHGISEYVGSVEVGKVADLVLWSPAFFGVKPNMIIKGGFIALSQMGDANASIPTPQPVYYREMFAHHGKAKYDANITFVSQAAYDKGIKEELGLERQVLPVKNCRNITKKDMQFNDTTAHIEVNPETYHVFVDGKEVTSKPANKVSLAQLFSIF

`O=C(O[C@@H]1Cc2c(O)cc(O)cc2O[C@@H]1c1cc(O)c(O)c(O)c1)c1cc(O)c(O)c(O)c1` [(–)-epigallocatechin gallate] gave an IC50 of 30 µM.
